Tests used:
mouse L929 fibroblasts = details: cited from earlier work
[1] = system: ROS 17/2.8 osteoblastic cells; details: cited from earlier work
primary glial cells = details: cited from earlier work
wild type cells = experiment: G418 concentration curve on wild type cells; format: cell-based; details: in 13 days
Description: Since geneticin (G418) resistance would be used as a selection tool, a G418 concentration curve was done and it was determined that 600 μg/ml was the minimum concentration G418 necessary to kill all the wild type cells in 13 days.

[2] = system: human nerve growth factor exon 3 promoter (pGL3Ex3) in UC11 cells; experiment: Luciferase assay, UC11 stable cell line with pGL3Ex3 (human NGF exon 3 promoter); format: cell-based; details: serum deprivation 48-56 hours, 18 hr treatment: serum 10% horse serum, PMA 1 μM, calcitriol 10 nM, mean ± SEM, 1 cell line n = 11-17, read-out: Fold induction over vehicle controls without serum (luciferase), UC11 Human Exon 3
Source text: (§1) DNA for the human nerve growth factor exon 3 clones was originally identified by PCR screening a human P1 genomic library (clone 0095-B8, Genome Systems). A ˜6600 bp fragment containing exon 3 was cloned into a pBS SK+ vector to yield the plasmid identified as pBSEx3. A 4329 bp fragment was isolated from the insert in pBSEx3 and subcloned into a pGL2 enhancer vector (Promega) and a pGL3 basic vector (Promega) to yield clones identified as pGL2Ex3 and pGL3Ex3, respectively. The pGL2Ex3 was transfected into mouse L929 cells and the pGL3Ex3 vector was transfected into human UC11 cells to generate the data in Table 1.
UC11 human astrocytoma cells (Liwnicz, et. al. 1986) were grown in RPMI 1640 containing 10% fetal bovine serum, 20 mM HEPES, penicillin (50 μg/ml), streptomycin (50 μg/ml), neomycin (100 μg/ml), and glutamine (1 mM). Cells were maintained at 37° C. in 5% CO2, fed every 3-4 days and passaged once per week. […]
(§2) Cells were plated at 5,000 cells/well in 96 well dishes in serum containing media described above. […] Cells were treated with 1 μM PMA, 10 nM calcitriol or 10% horse serum and luciferase activity was determined 18 hours later using a Promega kit (catalog #E1500). […] Luciferase activity was detected in a MicroLumat LB 96 P luminometer (Wallac Inc, Gaithersburg, Md.) for 10 seconds following automatic injection of 100 μl 470 μM luciferin.

[3] = system: human nerve growth factor exon 1 promoter KE (pNE1KE) in L929 cells; experiment: Luciferase assay, L929 stable cell lines with pNE1KE (human NGF exon 1 promoter KE); format: cell-based; details: serum deprivation 48-56 hours, 18 hr treatment: serum 10% horse serum, PMA 1 μM, calcitriol 10 nM, mean ± SEM, 6 cell lines in duplicate, read-out: Fold induction over vehicle controls without serum (luciferase), L929 Mouse Exon 1 KE
Source text: (§3) DNA for the human nerve growth factor exon 1 clones was originally identified by PCR screening a human P1 genomic library (clone 1226-G9, Genome Systems). A ˜14,000 bp fragment containing exon 1 was cloned into a pBS SK+ vector to yield the plasmid identified as pBSEx1. Two overlapping fragments were isolated from the insert in pBSEx1 and subcloned into a pGL3neo vector. The largest construct containing human nerve growth factor exon 1 is 2846 bp and is identified as pNE1KS. The second subclone from pBSEx1, identified as pNE1KE, contains the same 5′ end as pNE1KS and is truncated on the 3′ end in exon 1, resulting in an insert that is 2234 bp. pNE1KS and pNE1KE were transfected into mouse L929 cells and human UC 11 cells to generate the data in Table 1. […]
as §2

[4] = system: human nerve growth factor exon 1 promoter KE (pNE1KE) in UC11 cells; experiment: Luciferase assay, UC11 stable cell lines with pNE1KE (human NGF exon 1 promoter KE); format: cell-based; details: serum deprivation 48-56 hours, 18 hr treatment: serum 10% horse serum, PMA 1 μM, calcitriol 10 nM, mean ± SEM, 6 cell lines in triplicate, read-out: Fold induction over vehicle controls without serum (luciferase), UC11 Human Exon 1 KE
Source text: as §3, §2

[5] = system: human nerve growth factor exon 1 promoter KS (pNE1KS) in UC11 cells; experiment: Luciferase assay, UC11 stable cell lines with pNE1KS (human NGF exon 1 promoter KS); format: cell-based; details: serum deprivation 48-56 hours, 18 hr treatment: serum 10% horse serum, PMA 1 μM, calcitriol 10 nM, mean ± SEM, 6 cell lines in triplicate, read-out: Fold induction over vehicle controls without serum (luciferase), UC11 Human Exon 1 KS
Source text: as §3, §2

[6] = system: human nerve growth factor exon 3 promoter (pGL2Ex3) in L929 cells; experiment: Luciferase assay, L929 stable cell line with pGL2Ex3 (human NGF exon 3 promoter); format: cell-based; details: serum deprivation 48-56 hours, 18 hr treatment: serum 10% horse serum, PMA 1 μM, calcitriol 10 nM, mean ± SEM, 1 cell line n = 11-17, read-out: Fold induction over vehicle controls without serum (luciferase), L929 Mouse Exon 3
Source text: as §1
L929 mouse fibroblast cells (ATCC, Rockville, Md.) were grown in Dulbecco's modified Eagle's medium (DMEM) containing 10% horse serum, penicillin (50 μg/ml), streptomycin (50 μg/ml), neomycin (100 μg/ml), and glutamine (1 mM). Cells were maintained at 37° C. in 5% CO2, fed every 3-4 days and passaged once per week. […]
as §2

[7] = system: human nerve growth factor exon 1 promoter KS (pNE1KS) in L929 cells; experiment: Luciferase assay, L929 stable cell lines with pNE1KS (human NGF exon 1 promoter KS); format: cell-based; details: serum deprivation 48-56 hours, 18 hr treatment: serum 10% horse serum, PMA 1 μM, calcitriol 10 nM, mean ± SEM, 6 cell lines in duplicate, read-out: Fold induction over vehicle controls without serum (luciferase), L929 Mouse Exon 1 KS
Source text: as §3, §2

CCCCCCCCCCCCCC(=O)O[C@@H]1[C@@H](C)[C@@]2(O)[C@@H](C=C(CO)C[C@]3(O)C(=O)C(C)=C[C@@H]23)[C@@H]2C(C)(C)[C@]12OC(C)=O [PMA, phorbol 12-myristate 13-acetate]
effect on synthesis of NGF (mouse L929 fibroblasts): enhances the synthesis of NGF
effect on NGF expression [1]: suppresses expression
effect on synthesis of NGF (primary glial cells): enhances the synthesis of NGF

CN[C@@H]1[C@@H](O)[C@@H](O[C@@H]2[C@@H](O)[C@H](O[C@H]3O[C@H]([C@@H](C)O)[C@@H](O)[C@H](O)[C@H]3N)[C@@H](N)C[C@H]2N)OC[C@]1(C)O [G418, geneticin]
minimum concentration G418 necessary to kill all the wild type cells (wild type cells): 600 µg/mL

C=C1/C(=C\C=C2/CCC[C@]3(C)[C@@H]([C@H](C)CCCC(C)(C)O)CC[C@@H]23)C[C@@H](O)C[C@@H]1O [CALCITRIOL, calcitriol]
fold induction at 0.01 µM [2]: 0.98
fold induction at 0.01 µM [3]: 0.71
fold induction at 0.01 µM [4]: 1.01 ± 0.23
fold induction at 0.01 µM [5]: 0.86 ± 0.03
fold induction at 0.01 µM [6]: 0.73
fold induction at 0.01 µM [7]: 0.67
